Results reported in patent publication US9352013B2, “Uses of bremelanotide in therapy for female sexual dysfunction” (Palatin Technologies, Inc., priority 2012, dated 2016).

Test: Subcutaneous trial in males: vomiting
Type: in vivo, human
Details: intramuscular ondansetron
Description: In a trial in males, 1 of 6 subjects at the 5-mg dose level, 1 of 6 subjects at the 7.5 mg dose level, and 3 of 6 subjects at the 10-mg dose level experienced vomiting that was mild or moderate in intensity and delayed 6 to 15 hours.

Cc1nccn1CC1CCc2c(c3ccccc3n2C)C1=O (stereo not shown) [ondansetron, reference compound]
Resolution of bremelanotide-associated vomiting: Vomiting could be resolved
